Literature values as cited in patent US6331653A, “Process for producing 3,4-dihydroxy-3-cyclobutene-1,2-dione” (priority 1997, dated 2001).

Details: in an aqueous solution at 25° C.; amine compound
For CN1CCCCC1 [N-methylpiperidine], the pKa value is listed as 10.1.
For Cc1ccccn1 [α-picoline], the pKa value is listed as 5.9.
In the case of c1ccc2ncccc2c1 [Quinoline], the pKa value is listed as 4.8.
In the case of CN1CCCC1 [N-methylpyrrolidine], the pKa value is listed as 10.5.

Same assay, conditions: water
For CCN(CC)c1ccccc1 [N,N-diethylaniline], the pKa value is listed as 6.6.
In the case of CN(C)c1ccccc1 [N,N-dimethylaniline], the pKa value is given as 5.2.
For CCCCN(CCCC)CCCC [tributylamine], the pKa value is given as 9.9.
